A short description of data set [1]: Single-dose acute toxicity in mice. To be noted: mouse, in vivo; female CD-1 mice, SC, 3 doses of 50 mg/kg 2 hours apart in 0.5% methylocellulose, followed for 2 days. The procedure: Single-dose, acute toxicity experiments were carried out in female CD-1 mice. The animals were acclimated for 3 days and were 7 weeks old at the start of the experiments. Their weight ranged from 16 to 24 g.
In order to determine the maximum tolerated dose, a group of 3 mice was dosed with a total of 4.9 mg/kg of NOVO4 (10% DMSO in saline) delivered as two separate IV doses, 2 hr apart. In addition, another 3 mice were dosed subcutaneously with a total of 150 mg/kg of NOVO4 in 0.5% methylocellulose, delivered as 3 doses of 50 mg/kg each, 2 hours apart. The mice were then followed for 2 days.
This indicated a very high MTD of >150 mg/kg for NOVO4.

Data set [2] concerns different bacterial test strains. Description: Effect of serum or BSA supplement on MIC of NOVO4. It counts as cell-based. The procedure:
The lowest concentration of NOVO4 without any cell growth is the MIC (Minimal Inhibitory Concentration) of NOVO4. The data is the MIC of NOVO4 on different bacterial test strains in the presence of Mueller Hinton broth (MHB) or with MHB supplemented with either […].
These studies follow the procedure for determining the MIC described above in Example 5. Briefly, two-fold serial dilution of the NOVO4 compound are added to the test cells of interest, MRSA and VRE, and the lowest concentration of compound that inhibits growth after a period of incubation is considered to be the MIC. To determine the effect of serum on the activity of NOVO4, MIC in the absence of serum is compared to MIC in media supplemented with 10% calf bovine serum (ATCC 30-2030).

Data set [3] concerns NIH3T3 mouse embryonic fibroblasts. Description: Mammalian cytotoxicity, CellTiter 96 AQueous One Solution assay. The data set is classed as cell-based. To be noted: NIH3T3 cells, 24 hr, highest tested concentration 16 μg/ml. The procedure: Mammalian cytotoxicity assays were performed using NIH3T3 mouse embryonic fibroblasts (ATCC CRL-1658), and cytotoxicity was measured using the CellTiter 96® AQueous One Solution Cell Proliferation Assay (Promega, Madison, Wis., Cat: G3582), according to the manufacturer's recommendations.
100× working stocks of 2-fold serial dilution of NOVO4 in DMSO were created in a 96 well format. The highest concentration of the 100× concentration (working stock) was prepared by adding […] of the stock solution of NOVO4 (10 mg/ml in DMSO) for every 0.68 μl of DMSO to well A02. 0.5 μl of this 100× stock was added for every 0.5 μl of DMSO in well A03 to create a total of 7 two-fold serial dilution series, from 1600 μg/ml to 25 μg/ml (from highest in well A02 to A08,). A DMSO control was also included (wells in column A01, and A12). […]
The plate was visually inspected under a dissecting microscope, and the absorbance at 490 nm was read using a Spectramax Plus Spectrophotometer, with wells A12, and B12 reserved as blanks The signal of compound alone (well A11) was verified not to contribute to the absorbance at this wavelength. Next, 20 μl of the CellTiter 96® AQueous One Solution Cell Proliferation Assay (Promega, Madison, Wis., Cat: G3582) was added to each well, and the plate was read after 3 hr of incubation. […]

For a further data set, the system named is human red blood cells. It counts as cell-based. The procedure: The effect of NOVO4 on the hemolysis of human red blood cells was also tested. A total of 10 ml of expired packed red blood cells from the blood bank was gently added to 80 ml of PBS (Phosphate buffered saline), and pelleted at 1000 g for 5 minutes at 4° C. The upper phase and buffy layer (white blood cells) were removed. The cells are repeatedly washed by gentle mixing with PBS, and centrifugation until the upper phase is clear. In the last wash, 40 ml of 1× PBS with 0.05% BSA was added to half of the red blood cells while 40 ml of 1× PBS without BSA was added to the other half. The upper phase of the last wash was removed to leave a total volume of about 10 ml. The concentration of the red blood cells was measured by using the spectrophometer at 600 nm. An aliquot of the cells are diluted to a final density OD600 of 24 in 1× PBS, and another to a final density OD600 of 24 in 1× PBS with 0.05% BSA.
The compound NOVO4 is two-fold serially diluted (similar to that described above for mammalian NIH3T3 cytotoxicity assay) as 100× concentration in DMSO, ranging from 0.4 μg/ml to 400 μg/ml. […] After thorough mixing, the A450 was read using a Spectramax Plus Spectrophotometer, using wells with only 1× PBS as blanks […]

Consider `CC1\C=C/C=C\C=C/C=C\C=C/C(OC2OCC(O)C(O)C2N)C(C)(O)/C=C/C=C\C=C/C=C/C(=O)NC1` (stereo not drawn) [NOVO4], for which the MTD at 2 days in data set [1] is more than 150 mg/kg. Besides, in data set [2] (MHB versus MHB + 0.05% BSA, depending on the test organisms), the “effect of 0.05% BSA on the MIC” value was “either unchanged or lowered sightly”. Besides, the “effect of calf bovine serum on the MIC” value in data set [2] (MHB versus media supplemented with 10% calf bovine serum) is listed as “no significant effect”. In data set [3], this compound showed an LD50 of more than 16 µg/mL. For the same compound, the hemolysis entry in the data set with human red blood cells is on record as “no significant hemolysis”.

Turning to Triton X100 [reference compound], in the data set with human red blood cells, the “A450 (hemoglobin released by lysis of red blood cells)” value is on record as 0.41.

The values above are taken from patent publication US20110136752A1, “NOVEL ANTIBIOTICS” (priority 2009, published 2011).
